The source of these data is publication PMC9518248, “Inhibition of Toxoplasma gondii by 1,2,4-triazole-based compounds: marked improvement in selectivity relative to the standard therapy pyrimethamine and sulfadiazine” (Journal of Enzyme Inhibition and Medicinal Chemistry, 2022).

≈ marks a conversion by molar mass, not a printed value.

Data set [1] is described as follows: Haemolytic activity determination. In kind it is cell-based. As to conditions: 0.1%, positive control, human RBCs, 37 °C, 30 min; read-out: Haemolysis (%). How it is done: Human red blood cells (RBCs) concentrate was obtained from the Regional Blood Donation and Transfusion Centre (Lublin, Poland). RBCs concentrate (5 mL) was washed three times with sterile PBS and centrifuged at 500 g for 3 min. […] The amount of free haemoglobin in supernatants was measured spectrophotometrically at 405 nm. Negative and positive controls were performed by incubating RBCs with sterile PBS and 0.1% Triton-X, respectively. Each experiment was run in triplicate.

For data set [2], the system named is mouse fibroblasts L929 cells. The data set can be described thus: Cell viability assay (MTT, ISO 10993-5). As to conditions: 24 h, highest dilution causing 30% or higher destruction of cells. The format is cell-based. How it is done: Culture medium RPMI 1640, without phenol red (Biowest, Nuaille, France) supplemented with 10% FBS, 2 mM […] penicillin, 100 μg/mL streptomycin were used. Briefly, 1 × 10^4/well of L929 cells were placed in 96-well plates and incubated for 24 h at 37 °C and 10% CO2. Afterwards, the old culture medium was replaced with 100 μL of the compound, drug or inhibitor, diluted in culture medium and the cells treated for 24 h. Additionally, cells were treated with 0.03-4.0% concentration of DMSO as the solvent (data not shown). Then, 50 μL of 1 mg/mL of MTT solution in RPMI 1640 without phenol red was added to each well and incubated for 2 h at 37 °C and 10% CO2. Next, cell culture medium was aspirated carefully and 150 μL of DMSO was added to each well, and the plates were gently mixed. Then, 25 μL 0.1 M glycine buffer (pH 10.5) (Sigma-Aldrich) was added. The optical density at 570 nm using a multi-mode microplate reader SpectraMax® i3 (Syngen, Taipei City, Taiwan) was recorded. The results were expressed as a percentage of viability compared to untreated cells. All experiments were performed in triplicate. The reported methyl thiazolyltetrazole (MTT) method was used to study in vitro cytotoxic profile of the s-triazoles 1b-27b to the host cells (L929). Experiments were performed in accordance with the international standard IS0-10993-5:2009. […] The data for acyclic precursors 1a-27a are also included for comparison[39]^,[40].

Another data set relates to T. gondii RH-GFP. The data set can be described thus: Antiparasitic assay: T. gondii RH-GFP proliferation in Hs27 cells. In kind it is cell-based, Toxoplasma gondii. The note with it: for IC50: Toxoplasma gondii, T. gondii RH-GFP in Hs27 cells, 96 h, values above highest tested concentration extrapolated, read-out: IC50Tg; for SI: selectivity index, CC30 (L929)/IC50Tg.
The nature of data set [3]: Cytotoxicity against glioblastoma cells (MTT). In kind it is cell-based, human. As to conditions: human, T98G glioblastoma cells, MTT, read-out: Viability of T98G cells (% of control ± SD). As to the method:
(§1) Cytotoxic effect of 20b was evaluated using glioblastoma (T98G) cells obtained from the American Type Culture Collection (Manassas, VA). Cells were cultured in Dulbecco’s Modified Eagle’s Medium (DMEM-high glucose) (Sigma Aldrich, St. Louis, MO), supplemented with 10% heat inactivated FBS, penicillin (100 U/mL), and streptomycin (100 μg/mL) (Sigma Aldrich, St. Louis, MO). Cells were maintained in a humidified atmosphere of 5% CO2 and 95% air at 37 °C. Stock solutions of the investigated compounds (20b and temozolomide) were prepared by dissolving solid substances in a sterile DMSO. T98G glioblastoma cells were seeded into 96-well sterile plates at a density of 1 × 10^5cells/mL. After 24 h of incubation, the medium was removed from each well and then cells were incubated for the next 24 h with different concentrations of the investigated compounds (10, 25, 35, 50, and 100 µg/mL) in the medium containing 2% FBS. Viability of T98G cells was evaluated using MTT assay, whose principle is based on the conversion of 3–(4,5-dimethylthiazol-2-yl)-2,5-diphenyltetrazolium bromide (MTT) into dark-blue formazan crystals. In brief, after 24 h incubation of cells with varying concentrations of the tested compounds, culture medium was removed from the plate. Cells were washed with PBS, and then 100 µL of medium containing 10% MTT solution (5 mg/mL) was added to each well. After 3 h incubation, 100 µL (per well) of 10% SDS buffer solution was added to solubilise formazan crystals. After overnight incubation the absorbance was measured at 570 nm using a microplate reader (Epoch, BioTek Instruments, Winooski, VT). Experiments were repeated three times, and the measurements in each experiment were run in quadruplicate. Viability of the investigated cells was expressed as % of the viability of the untreated cells.

The test system of data set [4] is human glioblastoma T98G cells. The data set can be described thus: Cytotoxicity against glioblastoma cells (MTT). In kind it is cell-based. The note with it: 24 h. How it is done: as §1

Consider `CC(C)(C)CC(C)(C)c1ccc(OCCO)cc1` [Triton-X, reference compound], for which, in data set [1], the hemolysis at 30 min, 0.1 % was 99.78 ± 0.34%.
In general, melting point refers to the temperature, or range, at which the solid turns liquid. As for `Cc1nc[nH]c1-c1n[nH]c(=S)n1-c1cccc(I)c1` [11b, 4–(3-iodophenyl)-5–(4-methylimidazol-5-yl)-1,2,4-triazole-3-thione], the melting point worked out at 276.5 °C. In addition, the CC30 in data set [2] amounted to 625.17 µg/mL (≈ 1630 µM). For the same compound, in the data set with T. gondii RH-GFP, the IC50 was 36.4 µg/mL (≈ 95.1 µM) and the SI turned out to be 17.16.
Turning to `Cc1nc[nH]c1-c1n[nH]c(=S)n1-c1ccccc1Br` [7b, 4–(2-bromophenyl)-5–(4-methylimidazol-5-yl)-1,2,4-triazole-3-thione], the melting point came to 235.6 °C. Also, the CC30 in data set [2] is 2116.90 µg/mL (≈ 6300 µM). Also, in the data set with T. gondii RH-GFP, the IC50 is 66.7 µg/mL (≈ 199 µM) and the SI was 31.72.
On the same counts, the results for `Cc1nc[nH]c1-c1n[nH]c(=S)n1-c1ccc(I)cc1` [12b, 4–(4-iodophenyl)-5–(4-methylimidazol-5-yl)-1,2,4-triazole-3-thione] are 290 °C, 483.06 µg/mL (≈ 1260 µM), 99.1 µg/mL (≈ 259 µM) and 4.88.
On to `Cc1nc[nH]c1-c1n[nH]c(=S)n1-c1cccc(Br)c1` [8b, 4–(3-bromophenyl)-5–(4-methylimidazol-5-yl)-1,2,4-triazole-3-thione], for which the melting point was determined as 299.7 °C. The CC30 in data set [2] is 660.09 µg/mL (≈ 1960 µM). In the data set with T. gondii RH-GFP, the IC50 was 103 µg/mL (≈ 306 µM) and the SI amounted to 6.41.
For the compound `Cc1nc[nH]c1-c1n[nH]c(=S)n1Cc1ccccc1` [27b, 4-benzyl-5–(4-methylimidazol-5-yl)-1,2,4-triazole-3-thione], the melting point was 229.5 °C. Further, the CC30 in data set [2] worked out at 425.30 µg/mL (≈ 1570 µM). Further, in the data set on T. gondii RH-GFP, the IC50 was 148 µg/mL (≈ 545 µM) and the SI was found to be 2.87.
In the case of `COc1ccc(-n2c(-c3[nH]cnc3C)n[nH]c2=S)cc1OC` [21b, 4–(3,4-dimethoxyphenyl)-5–(4-methylimidazol-5-yl)-1,2,4-triazole-3-thione], the melting point was 213.4 °C. This compound displayed a CC30 in data set [2] of 318.42 µg/mL (≈ 1000 µM). For the same compound, in the data set on T. gondii RH-GFP, the IC50 is 139 µg/mL (≈ 438 µM) and the SI was determined as 2.29.
In the case of `Cc1ccccc1-n1c(-c2[nH]cnc2C)n[nH]c1=S` [14b, 5–(4-methylimidazol-5-yl)-4–(2-methylphenyl)-1,2,4-triazole-3-thione], the melting point stood at 249.9 °C. This compound also registered a CC30 in data set [2] of 2414.35 µg/mL (≈ 8900 µM). Besides, in the data set on T. gondii RH-GFP, the IC50 is 77.3 µg/mL (≈ 285 µM) and the SI was 31.23.
In turn, `Cc1cccc(-n2c(-c3[nH]cnc3C)n[nH]c2=S)c1` [15b, 5–(4-methylimidazol-5-yl)-4–(3-methylphenyl)-1,2,4-triazole-3-thione] displayed a melting point of 248.7 °C. In addition, in data set [2], the CC30 was 579.43 µg/mL (≈ 2140 µM). Also, in the data set with T. gondii RH-GFP, the IC50 is 79.1 µg/mL (≈ 292 µM) and the SI worked out at 7.33.
As for `Cc1nc[nH]c1-c1n[nH]c(=S)n1-c1ccccc1I` [10b, 4–(2-iodophenyl)-5–(4-methylimidazol-5-yl)-1,2,4-triazole-3-thione], the melting point amounted to 297.6 °C. Also, in data set [2], the CC30 is given as 1021.41 µg/mL (≈ 2670 µM). For the same compound, in the data set on T. gondii RH-GFP, the IC50 was 80.3 µg/mL (≈ 209 µM) and the SI worked out at 12.73.
`Cc1nc[nH]c1-c1n[nH]c(=S)n1-c1c(C(C)C)cccc1C(C)C` [24b, 4–(2,6-diisopropylphenyl)-5–(4-methylimidazol-5-yl)-1,2,4-triazole-3-thione] yielded a melting point of 251.9 °C. The same compound came in with a CC30 in data set [2] of 144.94 µg/mL (≈ 424 µM). Further, in the data set with T. gondii RH-GFP, the IC50 was 61.7 µg/mL (≈ 181 µM) and the SI worked out at 2.35.
As for `Cc1nc[nH]c1-c1n[nH]c(=S)n1-c1ccc(Br)cc1` [9b, 4–(4-bromophenyl)-5–(4-methylimidazol-5-yl)-1,2,4-triazole-3-thione], the melting point was 265.9 °C. Further, the CC30 in data set [2] amounted to 225.58 µg/mL (≈ 671 µM). For the same compound, in the data set with T. gondii RH-GFP, the IC50 is 153 µg/mL (≈ 455 µM) and the SI is listed as 1.48.
The compound `Cc1nc[nH]c1-c1n[nH]c(=S)n1-c1ccc(N(C)C)cc1` [25b, 5–(4-methylimidazol-5-yl)-4–(4-dimethyloaminophenyl)-1,2,4-triazole-3-thione] yielded a melting point of 288.2 °C. The CC30 in data set [2] was 755.61 µg/mL (≈ 2520 µM). In addition, in the data set on T. gondii RH-GFP, the IC50 was 285 µg/mL (≈ 950 µM) and the SI was 2.65.
In turn, `Cc1nc[nH]c1-c1n[nH]c(=S)n1-c1ccc(Cl)cc1` [6b, 4–(4-chlorophenyl)-5–(4-methylimidazol-5-yl)-1,2,4-triazole-3-thione] came in with a melting point of 255.8 °C. Moreover, the CC30 in data set [2] was determined as 460.26 µg/mL (≈ 1580 µM). For the same compound, in the data set on T. gondii RH-GFP, the IC50 is 267 µg/mL (≈ 914 µM) and the SI is 1.73.
The viability is the share of living cells, or the viability signal relative to a control. With `Cn1nnc2c(C(N)=O)ncn2c1=O` [Temozolomide, reference compound], the viability at 24 h, 10 µg/mL in data set [3] (10 µg/mL) was 66.6 ± 1.07%. For the same compound, the viability at 24 h, 25 µg/mL in data set [3] (25 µg/mL) worked out at 61.11 ± 0.45%. Moreover, the viability at 24 h, 35 µg/mL in data set [3] (35 µg/mL) is 57.3 ± 2.25%. The viability at 24 h, 50 µg/mL in data set [3] (50 µg/mL) was 55.3 ± 1.81%. The viability at 24 h, 100 µg/mL in data set [3] (100 µg/mL) is 53.95 ± 0.33%. The entries for the “reduction of T98G cell viability” value in data set [4] (10 µg/mL) and in data set [4] (100 µg/mL) were roughly 33% and roughly 46%, respectively.
In the case of `CCN(CC)c1ccc(-n2c(-c3[nH]cnc3C)n[nH]c2=S)cc1` [26b, 4–(4-diethylaminophenyl)-5–(4-methylimidazol-5-yl)-1,2,4-triazole-3-thione], the melting point was 147 °C. The CC30 in data set [2] is recorded as 230.94 µg/mL (≈ 703 µM). In the data set with T. gondii RH-GFP, the IC50 is 157 µg/mL (≈ 478 µM) and the SI is on record as 1.47.
Take `CCOc1ccc(-n2c(-c3[nH]cnc3C)n[nH]c2=S)cc1` [22b, 4–(4-ethoxyphenyl)-5–(4-methylimidazol-5-yl)-1,2,4-triazole-3-thione]: the melting point worked out at 239.9 °C. Also, in data set [2], the CC30 worked out at 1881.91 µg/mL (≈ 6240 µM). For the same compound, in the data set with T. gondii RH-GFP, the IC50 is 64.2 µg/mL (≈ 213 µM) and the SI is 29.33.
Take `Cc1nc[nH]c1-c1n[nH]c(=S)n1-c1ccccc1Cl` [4b, 4–(2-chlorophenyl)-5–(4-methylimidazol-5-yl)-1,2,4-triazole-3-thione]: the melting point turned out to be 243.4 °C. The same compound had a CC30 in data set [2] of 698.23 µg/mL (≈ 2390 µM). Besides, in the data set on T. gondii RH-GFP, the IC50 was 345 µg/mL (≈ 1180 µM) and the SI is 2.03.
